Reference: PubChem BioAssay (NCI)
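Protocol summary: plate cells (96-well), add compound at 5 concentrations, incubate 48 h, interpolate endpoints linearly. At the GI50, growth is halved. Definition used: TGI = concentration required for complete inhibition of growth.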

Assays:
Experiment in all cases: NCI-60 cell line screen, 48 h
OVCAR-4 ovarian = system: OVCAR-4 ovarian
CAKI-1 renal = system: CAKI-1 renal
ACHN renal = system: ACHN renal
NCI-H226 lung = system: NCI-H226 lung
SNB-75 CNS = system: SNB-75 CNS
DU-145 prostate = system: DU-145 prostate
SN12C renal = system: SN12C renal
LOX IMVI melanoma = system: LOX IMVI melanoma
SF-295 CNS = system: SF-295 CNS
IGROV1 ovarian = system: IGROV1 ovarian
UO-31 renal = system: UO-31 renal
BT-549 breast = system: BT-549 breast
NCI-H23 lung = system: NCI-H23 lung
HCT-116 colon = system: HCT-116 colon
SR leukemia = system: SR leukemia
OVCAR-5 ovarian = system: OVCAR-5 ovarian
786-0 renal = system: 786-0 renal
OVCAR-8 ovarian = system: OVCAR-8 ovarian
MDA-MB-231 breast = system: MDA-MB-231 breast
SNB-19 CNS = system: SNB-19 CNS
SK-MEL-28 melanoma = system: SK-MEL-28 melanoma
UACC-62 melanoma = system: UACC-62 melanoma
MDA-MB-435 = system: MDA-MB-435
COLO 205 colon = system: COLO 205 colon
NCI-H460 lung = system: NCI-H460 lung
U251 CNS = system: U251 CNS
M14 melanoma = system: M14 melanoma
RPMI-8226 leukemia = system: RPMI-8226 leukemia
UACC-257 melanoma = system: UACC-257 melanoma
HS 578T breast = system: HS 578T breast
PC-3 prostate = system: PC-3 prostate
EKVX NSCLC = system: EKVX NSCLC
SK-MEL-5 melanoma = system: SK-MEL-5 melanoma
HOP-62 NSCLC = system: HOP-62 NSCLC
RXF 393 renal = system: RXF 393 renal
A549 NSCLC = system: A549 NSCLC
T-47D breast = system: T-47D breast
MALME-3M melanoma = system: MALME-3M melanoma
OVCAR-3 ovarian = system: OVCAR-3 ovarian
NCI/ADR-RES ovarian = system: NCI/ADR-RES ovarian
SF-539 CNS = system: SF-539 CNS
KM12 colon = system: KM12 colon
SW-620 colon = system: SW-620 colon
HT29 colon = system: HT29 colon
MCF7 breast = system: MCF7 breast
TK-10 renal = system: TK-10 renal
SF-268 CNS = system: SF-268 CNS
A498 renal = system: A498 renal
NCI-H522 lung = system: NCI-H522 lung
MOLT-4 leukemia = system: MOLT-4 leukemia
CCRF-CEM leukemia = system: CCRF-CEM leukemia
SK-OV-3 ovarian = system: SK-OV-3 ovarian
HCT-15 colon = system: HCT-15 colon
HCC-2998 colon = system: HCC-2998 colon

In the case of `N#Cc1c(N)nc(NCc2ccccc2)c(C#N)c1-c1ccc(Cl)cc1`, the GI50 (OVCAR-4 ovarian) is reported as 9.57 µM, the TGI (OVCAR-4 ovarian) is reported as > 100 µM and the GI50 (CAKI-1 renal) is reported as 20.1 µM. The TGI (CAKI-1 renal) was 46.7 µM, the GI50 (ACHN renal) was 13.4 µM and the TGI (ACHN renal) was 32.8 µM. For the same compound, the GI50 (NCI-H226 lung) was 10.6 µM, the TGI (NCI-H226 lung) was 31.2 µM and the GI50 (SNB-75 CNS) was 22.1 µM. It also gave a TGI (SNB-75 CNS) of 72.3 µM, a GI50 (DU-145 prostate) of 17.7 µM and a TGI (DU-145 prostate) of 55.7 µM. It also gave a GI50 (SN12C renal) of 16.1 µM, a TGI (SN12C renal) of 38.3 µM and a GI50 (LOX IMVI melanoma) of 12.4 µM. For the same compound, the TGI (LOX IMVI melanoma) was 29.3 µM, the GI50 (SF-295 CNS) was 14.2 µM and the TGI (SF-295 CNS) was 34.4 µM. It also gave a GI50 (IGROV1 ovarian) of 13.5 µM, a TGI (IGROV1 ovarian) of 32.4 µM and a GI50 (UO-31 renal) of 31.9 µM. The TGI (UO-31 renal) was > 100 µM, the GI50 (BT-549 breast) was 19.6 µM and the TGI (BT-549 breast) was 60.4 µM. The GI50 (NCI-H23 lung) was 22.8 µM, the TGI (NCI-H23 lung) was 80 µM and the GI50 (HCT-116 colon) was 15.8 µM. It also gave a TGI (HCT-116 colon) of 41.3 µM, a GI50 (SR leukemia) of 13.3 µM and a TGI (SR leukemia) of 52.8 µM. It also gave a GI50 (OVCAR-5 ovarian) of 24.2 µM, a TGI (OVCAR-5 ovarian) of 76.1 µM and a GI50 (786-0 renal) of 20 µM. For the same compound, the TGI (786-0 renal) was 38.6 µM, the GI50 (OVCAR-8 ovarian) was 19 µM and the TGI (OVCAR-8 ovarian) was 57.2 µM. It also gave a GI50 (MDA-MB-231 breast) of 14.2 µM, a TGI (MDA-MB-231 breast) of 33.2 µM and a GI50 (SNB-19 CNS) of 31.6 µM. For the same compound, the TGI (SNB-19 CNS) was > 100 µM, the GI50 (SK-MEL-28 melanoma) was 25.9 µM and the TGI (SK-MEL-28 melanoma) was > 100 µM. The GI50 (UACC-62 melanoma) was 14.7 µM, the TGI (UACC-62 melanoma) was 33.5 µM and the GI50 (MDA-MB-435) was 15.7 µM. For the same compound, the TGI (MDA-MB-435) was 43.6 µM, the GI50 (COLO 205 colon) was 46.9 µM and the TGI (COLO 205 colon) was > 100 µM. It also gave a GI50 (NCI-H460 lung) of 10.2 µM, a TGI (NCI-H460 lung) of 28.7 µM and a GI50 (U251 CNS) of 12.4 µM. For the same compound, the TGI (U251 CNS) was 26.9 µM, the GI50 (M14 melanoma) was 20 µM and the TGI (M14 melanoma) was 99.7 µM. It also gave a GI50 (RPMI-8226 leukemia) of 18.9 µM, a TGI (RPMI-8226 leukemia) of 97.1 µM and a GI50 (UACC-257 melanoma) of 67.9 µM. For the same compound, the TGI (UACC-257 melanoma) was > 100 µM, the GI50 (HS 578T breast) was 15.6 µM and the TGI (HS 578T breast) was 40.4 µM. The GI50 (PC-3 prostate) was 17.9 µM, the TGI (PC-3 prostate) was 48.7 µM and the GI50 (EKVX NSCLC) was 27.3 µM. The TGI (EKVX NSCLC) was 79 µM, the GI50 (SK-MEL-5 melanoma) was 25.9 µM and the TGI (SK-MEL-5 melanoma) was > 100 µM. It also gave a GI50 (HOP-62 NSCLC) of 16.1 µM, a TGI (HOP-62 NSCLC) of 31.2 µM and a GI50 (RXF 393 renal) of 26.5 µM. For the same compound, the TGI (RXF 393 renal) was 74.1 µM, the GI50 (A549 NSCLC) was 28.3 µM and the TGI (A549 NSCLC) was > 100 µM. For the same compound, the GI50 (T-47D breast) was 27.3 µM, the TGI (T-47D breast) was > 100 µM and the GI50 (MALME-3M melanoma) was 14.4 µM. The TGI (MALME-3M melanoma) was 54.5 µM, the GI50 (OVCAR-3 ovarian) was 14.7 µM and the TGI (OVCAR-3 ovarian) was 37.1 µM. The GI50 (NCI/ADR-RES ovarian) was 19.8 µM, the TGI (NCI/ADR-RES ovarian) was 60 µM and the GI50 (SF-539 CNS) was 25.9 µM. The TGI (SF-539 CNS) was 68.1 µM, the GI50 (KM12 colon) was 25.2 µM and the TGI (KM12 colon) was > 100 µM. The GI50 (SW-620 colon) was 16.2 µM, the TGI (SW-620 colon) was 96.9 µM and the GI50 (HT29 colon) was 22.3 µM. The TGI (HT29 colon) was > 100 µM, the GI50 (MCF7 breast) was 13.8 µM and the TGI (MCF7 breast) was 83.1 µM. It also gave a GI50 (TK-10 renal) of 14.4 µM, a TGI (TK-10 renal) of 32.8 µM and a GI50 (SF-268 CNS) of 14.3 µM. It also gave a TGI (SF-268 CNS) of 35.6 µM, a GI50 (A498 renal) of 10.4 µM and a TGI (A498 renal) of 26.4 µM. For the same compound, the GI50 (NCI-H522 lung) was 20.9 µM, the TGI (NCI-H522 lung) was 57.5 µM and the GI50 (MOLT-4 leukemia) was 34.3 µM. The TGI (MOLT-4 leukemia) was > 100 µM, the GI50 (CCRF-CEM leukemia) was 28.2 µM and the TGI (CCRF-CEM leukemia) was > 100 µM. The GI50 (SK-OV-3 ovarian) was 33.2 µM, the TGI (SK-OV-3 ovarian) was > 100 µM and the GI50 (HCT-15 colon) was 18.8 µM. For the same compound, the TGI (HCT-15 colon) was > 100 µM, the GI50 (HCC-2998 colon) was 71.1 µM and the TGI (HCC-2998 colon) was > 100 µM.
